Experimental data from US4168313A, “Phthalidyl 2-(3'-trifluoromethyl-anilino)-pyridine-3-carboxylate and its salts” (priority 1978, dated 1979).

How the values were obtained:
gastric epithelium = experiment: method of Goldemberg, ulceration by pylorus ligature (ulcerogenic effect); type: in vivo, Sprague-Dowley rats; settings: for ulceration score Increase: increase over control (distilled water) score 2.0, mg/Kg: phenylbutazone 75, acid 47, acetylsalicylic acid 200; for ulceration Score: score 0=no hemorrhagic spots to 6=perforated ulcer, control (distilled water) 2.0, mg/Kg: phenylbutazone 75, acid 47, acetylsalicylic acid 200, phthalidyl ester 69; for ulcerogenic effect (in words): summary statement, b45 relative to the respective acid
Experimental: 2 To compare the effect on ulcer of the new compound regarding to other antiinflammatory drugs, the method of Goldemberg (ulceration by pylorus ligature) (Arzneim. Forsch. (Drug Res.) 26, 3, 1976) to Sprague-Dowley rats (400-600 g of weight), was performed. The ulceration of the gastric epithelium was observed and evaluated in accordance to the following score; 0=no hemorrhagic spots; 1=some isolated hemorrhagic spots; 2=redness of the gastric epithelium; 3=1 to 5 small ulcers with a diameter greater than 3 mm; 6=perforated ulcer.

[1] = background statement; cited from earlier work
[2] = background statement; cited from earlier work; remark: listed apart in the source
[3] = tested on: carraghenine-provoked aedema of the paw of rat; experiment: carraghenine-provoked aedema of the paw of rat (antiinflammatory activity); type: in vivo; settings: for % AEDEMA INHIBITION 3 hr / % AEDEMA INHIBITION 4 hr: rat paw, TNA 47 mg/Kg, PTP 69 mg/Kg (equivalent to 47 mg of the acid)
Text: 1 By means of the test involving the carraghenine-provoked aedema of the paw of rat (Winter, C. A., Proceeding Soc. Exp. Biol. Med., III, 544, 1962) the antiinflammatory activities of phthalidyl 2-(3'-trifluormethylanilino)-pyridine-3-carboxylate (PTP) and 2(3'-trifluormethylanilino) nicotinic acid (TNA), were compared.

oral tolerability = type: in vivo

SMILES	ulceration score Increase (gastric epithelium)	ulceration Score (gastric epithelium)	ulcer provocation (in words) [1]	antiinflammatory activity (in words) [2]	% AEDEMA INHIBITION 3 hr [3] [%]	% AEDEMA INHIBITION 4 hr [3] [%]	antiinflammatory activity compared with the acid (in words) ([3]; relative to 2(3'-trifluormethylanilino) pyridine-3-carboxylic acid)	anti-inflammatory activity (in words) ([3]; summary statement)	ulcerogenic effect (in words) (gastric epithelium)	ulcerogenic effect (in words) (gastric epithelium; listed as phthalidyl ester)	oral tolerability (in words) (oral tolerability)
CC(=O)Oc1ccccc1C(=O)O [Acetylsalicylic acid]	1.9	3.9									
O=C(O)c1cccnc1Nc1cccc(C(F)(F)F)c1 [TNA, 2(3'-trifluormethylanilino) nicotinic acid]	1.3	3.3	provoke ulcers	relevant antiinflammatory activity	25.6	31.8					
CCCCC1C(=O)N(c2ccccc2)N(c2ccccc2)C1=O [Phenylbutazone]	2.3	4.3									
O=C1OC(OC(=O)c2cccnc2Nc2cccc(C(F)(F)F)c2)c2ccccc21 (stereo not drawn) [PTP, phthalidyl 2-(3'-trifluormethylanilino)-pyridine-3-carboxylate]		2.0			32	37.8	antiinflammatory activity greater than the acid	anti-inflammatory activity	less ulcerogenic than respective acid	without ulcerogenic effect	orally well tolerated
